These results are taken from patent US20160159808A1, “HETEROCYCLIC COMPOUND” (TAKEDA PHARMACEUTICAL COMPANY LIMITED, priority 2013, published 2016).

One assay concerns the target T1, human PDE2A3 enzyme (Homo sapiens, UniProt O00408).
T1 construct: Human PDE2A3 full-length gene was transduced into Sf9; His-tag; made in house; host or cells: Sf9 insect cells
Kind of assay: PDE Enzyme Inhibitory Assay (SPA, [3H]cGMP substrate). The following applies: compound 1 μM; [3H]cGMP 77 nM; 60 min at room temperature; read-out: inhibitory rate (%) (1 μM). The assay is classed as biochemical. As for the experimental part: PDE Enzyme Inhibitory Assay Human PDE2A3 full-length gene was transduced into Sf9, and human PDE2A3 enzyme was purified by His-tag affinity column and gel filtration. The enzyme was stored at −70° C. until use. PDE activity was measured using a SPA (Scintillation Proximity Assay) (GE Healthcare). To evaluate the inhibitory activity of the compound, 10 μl of serial diluted compounds were reacted with 20 μl of PDE enzyme in assay buffer (50 mM HEPES-NaOH, 8.3 mM MgCl2, 1.7 mM EGTA, 0.1% BSA (pH 7.4)) for 30 min. at room temperature. Final concentration of DMSO in the reaction solution was 1 percent. Compounds were tested in duplicate in 96-well half-area plates (Corning) or 384-well OptiPlate (PerkinElmer). To start the reaction, 10 μl of substrate [^3H] cGMP (final concentration 77 nM, PerkinElmer) was added to a total volume of 40 μl. After reaction for 60 min at room temperature, 20 μl of 20 mg/mL yttrium SPA beads containing zinc sulfate was added to terminate the PDE reaction. After being settled for further 1 hour, the assay plates were counted in a scintillation counter (PerkinElmer) to allow calculation of inhibition rate. Inhibition rate was calculated on the basis of 0% control wells with enzyme and DMSO, and 100% control wells without enzyme.

The next assay has as its system Male C57BL/6 mice. In words: Contextual fear conditioning test, MK-801-induced deficits. The assay is classed as in vivo. Conditions: 30 mg/kg p.o. 60 min before test, MK-801 (maleate) 0.08 mg/kg s.c. 30 min before test, n=10, FIG. 1. As for the experimental part: Improvement effect on MK-801 ((5S,10R)-5-methyl-10,11-dihydro-5H-5,10-epiminodibenzo[a,d][7]annulene)-induced disorder in contextual fear conditioning test.
Male C57BL/6 mice were purchased from CLEA Japan, Inc. They were used for an experiment after a habituation period of at least one week after carrying them in the animal experimental facility. They were bred in the animal experimental facility with environment in which 12-hours light-dark cycle was performed, humidity and temperature were controlled, and free water drinking and feeding were allowed. Handling of experimental animals and experimental procedure of this study were approved by the Experimental Animal Ethics Committee of Takeda Pharmaceutical Company Limited.
A test compound was suspended in 0.5% methylcellulose solution at a dose of 30 mg/kg, and orally administered. MK-801 (maleate) (Sigma-Aldrich, St Louis, Mo.) was dissolved in saline at a dose of 0.08 mg/kg, and subcutaneously administered. All drugs were administered to mice at a dose of 10 mL/kg.
Contextual fear conditioning test is widely used as memory and learning test system depending on the hippocampus and amygdala. The improvement effect of test compounds on MK-801-induced deficits was investigated by contextual fear conditioning test. The test compounds and MK-801 (maleate) were administered 60 min and 30 min, respectively, before the test. 0.5% methylcellulose and saline were administered to the control groups 60 min and 30 min, respectively, before the test. 0.5% methylcellulose and MK-801 (maleate) were administered to the vehicle groups 60 min and 30 min, respectively, before the test. […] In the test session on day 2 of the experiment, mice were placed in the same chamber for 7 minutes, and freezing was measured during that period. The freezing was calculated as a percentage of freezing rates during measuring period with use of an automatic analysis software manufactured by the O'Hara & Co., Ltd. All data were shown as the mean+standard error (n=10). […]

T1 sequence (O00408 whole entry): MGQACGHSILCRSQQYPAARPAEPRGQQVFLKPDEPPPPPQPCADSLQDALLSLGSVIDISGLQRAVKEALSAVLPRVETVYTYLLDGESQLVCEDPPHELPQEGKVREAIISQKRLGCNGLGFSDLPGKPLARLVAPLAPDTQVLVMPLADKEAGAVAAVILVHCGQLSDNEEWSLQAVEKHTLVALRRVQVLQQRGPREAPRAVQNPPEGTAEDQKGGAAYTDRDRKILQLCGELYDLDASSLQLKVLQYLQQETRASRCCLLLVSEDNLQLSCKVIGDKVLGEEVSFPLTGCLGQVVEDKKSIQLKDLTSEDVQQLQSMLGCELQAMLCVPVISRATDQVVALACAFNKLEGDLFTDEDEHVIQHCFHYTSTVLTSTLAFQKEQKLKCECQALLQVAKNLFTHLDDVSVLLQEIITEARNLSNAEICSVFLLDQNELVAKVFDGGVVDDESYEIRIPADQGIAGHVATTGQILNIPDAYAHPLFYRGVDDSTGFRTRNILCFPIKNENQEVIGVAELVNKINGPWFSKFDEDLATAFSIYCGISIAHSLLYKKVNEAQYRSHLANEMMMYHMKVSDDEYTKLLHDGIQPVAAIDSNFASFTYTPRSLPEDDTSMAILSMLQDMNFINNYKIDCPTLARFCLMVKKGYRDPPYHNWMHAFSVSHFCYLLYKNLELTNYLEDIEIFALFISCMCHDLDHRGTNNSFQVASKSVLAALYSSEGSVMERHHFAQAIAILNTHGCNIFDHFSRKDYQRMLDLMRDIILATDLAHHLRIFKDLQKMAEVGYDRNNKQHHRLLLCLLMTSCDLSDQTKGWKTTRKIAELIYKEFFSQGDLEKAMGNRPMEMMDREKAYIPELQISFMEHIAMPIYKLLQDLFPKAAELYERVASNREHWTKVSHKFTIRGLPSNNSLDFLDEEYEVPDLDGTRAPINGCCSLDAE

For `CC1(C)CCN(c2ccn3ncc(C(=O)N[C@@H](c4ccc(OC(F)(F)F)cc4)C(C)(C)O)c3n2)C1=O` [Example 135, 5-(3,3-dimethyl-2-oxopyrrolidin-1-yl)-N-((1S)-2-hydroxy-2-methyl-1-(4-(trifluoromethoxy)phenyl)propyl)pyrazolo[1,5-a]pyrimidine-3-carboxamide], the inhibition at 1 µM at human PDE2A3 enzyme was determined as 100%.
Consider `CC1(C)CN(c2ccn3ncc(C(=O)N[C@@H](c4ccc(OC(F)(F)F)cc4)C(C)(C)O)c3n2)CCO1` [Example 124, 5-(2,2-dimethylmorpholin-4-yl)-N-((1S)-2-hydroxy-2-methyl-1-(4-(trifluoromethoxy)phenyl)propyl)pyrazolo[1,5-a]pyrimidine-3-carboxamide], for which, at human PDE2A3 enzyme, the inhibition at 1 µM stood at 99%.
The same measure, in the same setting: in the case of `Cc1cn2ncc(C(=O)N[C@@H](c3ccc(OC(F)(F)F)cc3)C(C)(C)O)c2nc1-c1cnn(C(F)F)c1` [Example 83, 5-(1-(difluoromethyl)-1H-pyrazol-4-yl)-N-((1S)-2-hydroxy-2-methyl-1-(4-(trifluoromethoxy)phenyl)propyl)-6-methylpyrazolo[1,5-a]pyrimidine-3-carboxamide] it was 100%; in that of `CCN(C)c1ccn2ncc(C(=O)NC(c3ccc(OC(F)(F)F)c(F)c3)C(C)(C)O)c2n1` (centres unmarked) [Example 29, 5-(ethyl(methyl)amino)-N-(1-(3-fluoro-4-(trifluoromethoxy)phenyl)-2-hydroxy-2-methylpropyl)pyrazolo[1,5-a]pyrimidine-3-carboxamide], 100%; in that of `COC[C@@H](NC(=O)c1cnn2cc(C)cnc12)c1ccc(OC(F)(F)F)c(F)c1` [Example 12, N-((1S)-1-(3-fluoro-4-(trifluoromethoxy)phenyl)-2-methoxyethyl)-6-methylpyrazolo[1,5-a]pyrimidine-3-carboxamide], 99%.
Same read-out and setting: as for `COC[C@@H](NC(=O)c1cc(=O)[nH]c2cc(OC)cnc12)c1ccc(OC(F)(F)F)c(F)c1` [Example 152, N-((1S)-1-(3-fluoro-4-(trifluoromethoxy)phenyl)-2-methoxyethyl)-7-methoxy-2-oxo-1,2-dihydro-1,5-naphthyridine-4-carboxamide], the figure is 100%.
Same read-out and setting: as for `CC(C)(O)[C@@H](NC(=O)c1ccc2cncc(-c3ccccc3)c2n1)c1ccc(OC(F)(F)F)cc1` [Example 164, N-((1S)-2-hydroxy-2-methyl-1-(4-(trifluoromethoxy)phenyl)propyl)-8-phenyl-1,6-naphthyridine-2-carboxamide], the figure is 97%; as for `Cc1cn2ncc(C(=O)NC(c3ccc(OC(F)(F)F)c(F)c3)C(C)(C)O)c2nc1N1CCC1` (centres unmarked) [Example 59, 5-(azetidin-1-yl)-N-(1-(3-fluoro-4-(trifluoromethoxy)phenyl)-2-hydroxy-2-methylpropyl)-6-methylpyrazolo[1,5-a]pyrimidine-3-carboxamide], 101%.
Take `CC(C)(O)[C@@H](NC(=O)c1cnn2ccc(-c3cnn(C(F)F)c3)nc12)c1ccc(OC(F)(F)F)cc1` [Example 70, 5-(1-(difluoromethyl)-1H-pyrazol-4-yl)-N-((1S)-2-hydroxy-2-methyl-1-(4-(trifluoromethoxy)phenyl)propyl)pyrazolo[1,5-a]pyrimidine-3-carboxamide]: the inhibition at 1 µM on human PDE2A3 enzyme worked out at 101%.
Still for that read-out and setting: in the case of `CC(C)(O)[C@@H](NC(=O)c1cnn2ccc(-c3ccccn3)nc12)c1ccc(OC(F)(F)F)cc1` [Example 72, N-((1S)-2-hydroxy-2-methyl-1-(4-(trifluoromethoxy)phenyl)propyl)-5-(pyridin-2-yl)pyrazolo[1,5-a]pyrimidine-3-carboxamide] it was 100%; in that of `Cn1cc(C(=O)N[C@@H](c2ccc(OC(F)(F)F)c(F)c2)C(C)(C)O)c2nc(C3CC3)cc(=O)n21` [Example 66, 5-cyclopropyl-N-((1S)-1-(3-fluoro-4-(trifluoromethoxy)phenyl)-2-hydroxy-2-methylpropyl)-1-methyl-7-oxo-1,7-dihydropyrazolo[1,5-a]pyrimidine-3-carboxamide], 98%.
The same measure, in the same setting: as for `Cn1cc(C(=O)N[C@@H](c2ccc(OC(F)(F)F)cc2)C(C)(C)O)c2nc(-c3ccccn3)cc(=O)n21` [Example 77, N-((1S)-2-hydroxy-2-methyl-1-(4-(trifluoromethoxy)phenyl)propyl)-1-methyl-7-oxo-5-(pyridin-2-yl)-1,7-dihydropyrazolo[1,5-a]pyrimidine-3-carboxamide], the figure is 100%.
Take `Cc1cn(-c2ccn3ncc(C(=O)N[C@@H](c4ccc(OC(F)(F)F)cc4)C(C)(C)O)c3n2)cn1` [Example 115, N-((1S)-2-hydroxy-2-methyl-1-(4-(trifluoromethoxy)phenyl)propyl)-5-(4-methyl-1H-imidazol-1-yl)pyrazolo[1,5-a]pyrimidine-3-carboxamide]: the inhibition at 1 µM on human PDE2A3 enzyme was found to be 101%.
With `Cc1ccc(-c2ccn3ncc(C(=O)N[C@@H](c4ccc(OC(F)(F)F)cc4)C(C)(C)O)c3n2)cn1` [Example 69, N-((1S)-2-hydroxy-2-methyl-1-(4-(trifluoromethoxy)phenyl)propyl)-5-(6-methylpyridin-3-yl)pyrazolo[1,5-a]pyrimidine-3-carboxamide], the inhibition at 1 µM on human PDE2A3 enzyme worked out at 100%. Besides, the “improvement effect on MK-801-induced deficits in contextual fear conditioning test (freezing)” value in the assay with Male C57BL/6 mice is “improvement effect on MK-801-induced deficits was shown”.
With `Cc1cn2ncc(C(=O)N[C@@H](c3ccc(OC(F)(F)F)cc3)C(C)(C)O)c2nc1-n1cnc(C(F)(F)F)c1` [Example 79, N-((1S)-2-hydroxy-2-methyl-1-(4-(trifluoromethoxy)phenyl)propyl)-6-methyl-5-(4-(trifluoromethyl)-1H-imidazol-1-yl)pyrazolo[1,5-a]pyrimidine-3-carboxamide], on human PDE2A3 enzyme, the inhibition at 1 µM was 101%.
Still for that read-out and setting: as for `COC[C@@H](NC(=O)c1cc(=O)[nH]c2cc(C)cnc12)c1ccc(OC(F)(F)F)cc1` [Example 92, N-((1S)-2-methoxy-1-(4-(trifluoromethoxy)phenyl)ethyl)-7-methyl-2-oxo-1,2-dihydro-1,5-naphthyridine-4-carboxamide], the figure is 100%; as for `COCC(NC(=O)c1cnn2ccc(N3CCOCC3)nc12)c1ccc(OC(F)(F)F)c(F)c1` (centres unmarked) [Example 38, N-(1-(3-fluoro-4-(trifluoromethoxy)phenyl)-2-methoxyethyl)-5-(morpholin-4-yl)pyrazolo[1,5-a]pyrimidine-3-carboxamide], 98%.
Same read-out and setting: as for `COCC(NC(=O)c1cc(=O)[nH]c2cccnc12)c1ccc(OC(F)(F)F)cc1` (centres unmarked) [Example 1, N-(2-methoxy-1-(4-(trifluoromethoxy)phenyl)ethyl)-2-oxo-1,2-dihydro-1,5-naphthyridine-4-carboxamide], the figure is 99%; as for `CC(C)(O)[C@@H](NC(=O)c1cnn2ccc(-c3ccccc3C#N)nc12)c1ccc(OC(F)(F)F)c(F)c1` [Example 101, 5-(2-cyanophenyl)-N-((1S)-1-(3-fluoro-4-(trifluoromethoxy)phenyl)-2-hydroxy-2-methylpropyl) pyrazolo[1,5-a]pyrimidine-3-carboxamide], 100%.
